Measured values: patent publication US11420969B2 (Exonate Limited, priority 2017, dated 2022)

Key:
[1] = biological target: T1, CYP2C9 (Homo sapiens, UniProt P11712); test: CYP inhibition assay, human liver microsomes, substrate diclofenac; assay type: in vitro ADME; conditions: human liver microsomes, 10 min incubation, LC-MS/MS; read-out: CYP Inhibition Activity (IC50/nM) CYP2C9
T1 construct: from tissue; host or cells: human liver microsomes
Experimental: (§1) 2 μL of test compound/Positive Inhibitor working solutions is then added to the reaction plate (2 μL/well). For control, 2 μL of Acetonitrile (ACN) containing DMSO (without inhibitor) is added to the reaction plate. 20 μL of substrate pool is added to all the wells of the reaction plate. The samples are mixed in a vortexer and pre-incubated at 37° C. for 20 min. The NADPH solution is pre-warmed at 37° C. for 5 min. 20 μL of pre-warmed NADPH solution is added to the reaction plate and then incubated at 37° C. for 10 min. The reaction is terminated by adding cold ACN (200 μL/well) to the reaction mixture and centrifuging at 4,000 rpm for 20 minutes. After centrifugation, supernatant is separated and analyzed by LC-MS/MS.
(§2) % inhibition and IC50 are calculated using Graphpad Prism software.

[2] = biological target: T2, CYP3A4 (Homo sapiens, UniProt P08684); test: CYP inhibition assay, human liver microsomes, substrate midazolam; assay type: in vitro ADME; conditions: human liver microsomes, 10 min incubation, LC-MS/MS; read-out: CYP Inhibition Activity (IC50/nM) CYP3A4
T2 construct: from tissue; host or cells: human liver microsomes
T2 sequence (P08684 whole entry): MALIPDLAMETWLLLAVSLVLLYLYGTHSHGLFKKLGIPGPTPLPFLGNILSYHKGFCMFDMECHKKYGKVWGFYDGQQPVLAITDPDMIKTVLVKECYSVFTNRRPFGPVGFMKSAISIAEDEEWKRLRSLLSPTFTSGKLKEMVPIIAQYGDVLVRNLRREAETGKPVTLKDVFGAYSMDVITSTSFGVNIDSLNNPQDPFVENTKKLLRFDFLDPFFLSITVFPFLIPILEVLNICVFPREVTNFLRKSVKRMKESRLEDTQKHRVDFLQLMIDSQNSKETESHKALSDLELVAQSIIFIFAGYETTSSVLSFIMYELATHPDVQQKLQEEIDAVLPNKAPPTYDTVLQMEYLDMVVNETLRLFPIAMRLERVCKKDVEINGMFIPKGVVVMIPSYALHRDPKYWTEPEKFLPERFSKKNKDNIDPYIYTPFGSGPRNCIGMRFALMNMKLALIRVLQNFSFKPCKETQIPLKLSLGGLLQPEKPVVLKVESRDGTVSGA
Experimental: as §1, §2

[3] = biological target: T3, CYP1A2 (Homo sapiens, UniProt P05177); test: CYP inhibition assay, human liver microsomes, substrate tacrine; assay type: in vitro ADME; conditions: human liver microsomes, 10 min incubation, LC-MS/MS; read-out: CYP Inhibition Activity (IC50/nM) CYP1A2
T3 construct: from tissue; host or cells: human liver microsomes
T3 sequence (P05177 1-516): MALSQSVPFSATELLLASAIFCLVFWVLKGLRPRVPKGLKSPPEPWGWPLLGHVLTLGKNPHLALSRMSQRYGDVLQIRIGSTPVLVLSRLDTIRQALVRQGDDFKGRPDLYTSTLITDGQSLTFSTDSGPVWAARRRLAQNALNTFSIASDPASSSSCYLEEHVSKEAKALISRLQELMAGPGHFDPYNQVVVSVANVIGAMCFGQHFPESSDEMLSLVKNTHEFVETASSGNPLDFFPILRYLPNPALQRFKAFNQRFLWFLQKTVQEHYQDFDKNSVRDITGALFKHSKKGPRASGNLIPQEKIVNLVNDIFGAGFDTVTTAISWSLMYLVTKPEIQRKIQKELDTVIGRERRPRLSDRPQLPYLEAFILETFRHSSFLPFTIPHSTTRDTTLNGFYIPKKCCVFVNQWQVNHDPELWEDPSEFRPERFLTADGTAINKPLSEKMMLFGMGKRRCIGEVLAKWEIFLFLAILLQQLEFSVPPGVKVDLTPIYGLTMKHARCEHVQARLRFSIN
Experimental: as §1, §2

[4] = biological target: SRPK1 (Homo sapiens, UniProt Q96SB4); test: In vitro SRPK1 assay (Kinase-Glo); assay type: biochemical
Sequence of SRPK1 (Q96SB4 whole entry, species assumed): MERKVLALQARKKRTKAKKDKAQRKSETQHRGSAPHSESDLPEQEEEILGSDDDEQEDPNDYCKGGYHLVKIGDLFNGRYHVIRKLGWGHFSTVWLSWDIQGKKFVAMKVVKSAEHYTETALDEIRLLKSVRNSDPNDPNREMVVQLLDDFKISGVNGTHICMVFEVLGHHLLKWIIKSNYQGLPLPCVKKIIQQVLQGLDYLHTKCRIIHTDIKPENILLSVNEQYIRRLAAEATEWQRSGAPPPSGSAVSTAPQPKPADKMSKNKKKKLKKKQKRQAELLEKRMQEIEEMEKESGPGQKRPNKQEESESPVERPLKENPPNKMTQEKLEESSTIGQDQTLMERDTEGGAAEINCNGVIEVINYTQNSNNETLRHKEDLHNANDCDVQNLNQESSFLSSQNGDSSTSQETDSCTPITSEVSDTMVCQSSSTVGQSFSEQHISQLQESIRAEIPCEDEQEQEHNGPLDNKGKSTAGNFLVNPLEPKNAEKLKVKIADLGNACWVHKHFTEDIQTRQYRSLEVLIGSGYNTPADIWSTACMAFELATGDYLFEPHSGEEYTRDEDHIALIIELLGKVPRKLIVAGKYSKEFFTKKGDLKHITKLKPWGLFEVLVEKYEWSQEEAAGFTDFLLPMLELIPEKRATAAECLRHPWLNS

[5] = biological target: T4, CYP2C19 (Homo sapiens, UniProt P33261); test: CYP inhibition assay, human liver microsomes, substrate S-mephenytoin; assay type: in vitro ADME; conditions: human liver microsomes, 10 min incubation, LC-MS/MS; read-out: CYP Inhibition Activity (IC50/nM) CYP2C19
T4 construct: from tissue; host or cells: human liver microsomes
T4 sequence (P33261 whole entry): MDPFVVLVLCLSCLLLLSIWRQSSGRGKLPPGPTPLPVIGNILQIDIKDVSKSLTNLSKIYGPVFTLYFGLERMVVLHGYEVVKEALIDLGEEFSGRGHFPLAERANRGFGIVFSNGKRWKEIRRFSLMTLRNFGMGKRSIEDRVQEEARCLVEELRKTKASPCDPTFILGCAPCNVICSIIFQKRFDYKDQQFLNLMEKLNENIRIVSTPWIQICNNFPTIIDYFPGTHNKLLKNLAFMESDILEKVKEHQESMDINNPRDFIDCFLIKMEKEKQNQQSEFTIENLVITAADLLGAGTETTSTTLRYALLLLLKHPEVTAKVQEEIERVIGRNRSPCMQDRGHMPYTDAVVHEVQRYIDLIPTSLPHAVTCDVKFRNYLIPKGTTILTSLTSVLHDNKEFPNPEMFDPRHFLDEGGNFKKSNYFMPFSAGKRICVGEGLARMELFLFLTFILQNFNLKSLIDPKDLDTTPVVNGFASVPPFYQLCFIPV
Experimental: as §1, §2

[6] = biological target: T5, CYP2D6 (Homo sapiens, UniProt P10635); test: biochemical; assay type: in vitro ADME
T5 construct: from tissue; host or cells: human liver microsomes
T5 sequence (P10635 whole entry): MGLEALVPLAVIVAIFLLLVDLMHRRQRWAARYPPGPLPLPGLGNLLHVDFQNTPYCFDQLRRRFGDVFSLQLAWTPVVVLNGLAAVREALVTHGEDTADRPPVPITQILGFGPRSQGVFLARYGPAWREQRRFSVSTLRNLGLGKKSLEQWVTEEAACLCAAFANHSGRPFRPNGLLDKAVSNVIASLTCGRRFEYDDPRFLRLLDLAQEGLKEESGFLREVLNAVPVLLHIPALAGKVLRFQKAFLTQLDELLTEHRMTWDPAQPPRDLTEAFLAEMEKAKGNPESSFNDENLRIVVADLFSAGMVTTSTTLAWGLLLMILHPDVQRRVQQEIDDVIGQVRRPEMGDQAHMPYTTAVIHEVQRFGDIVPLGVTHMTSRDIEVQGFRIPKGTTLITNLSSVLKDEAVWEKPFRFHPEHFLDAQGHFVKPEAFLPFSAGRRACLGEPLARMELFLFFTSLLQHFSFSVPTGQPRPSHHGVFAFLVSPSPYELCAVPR
Experimental: 158 μL of Human Liver Microsomes working stock solution is added to a reaction plate (0.253 mg/mL, 158 μL/well). 2 μL of test compound/Positive Inhibitor working solutions is then added to the reaction plate (2 μL/well). For control, 2 μL of Acetonitrile (ACN) containing DMSO (without inhibitor) is added to the reaction plate. 20 μL of substrate pool is added to all the wells of the reaction plate. The samples are mixed in a vortexer and pre-incubated at 37° C. for 20 min. The NADPH solution is pre-warmed at 37° C. for 5 min. 20 μL of pre-warmed NADPH solution is added to the reaction plate and then incubated at 37° C. for 10 min. The reaction is terminated by adding cold ACN (200 μL/well) to the reaction mixture and centrifuging at 4,000 rpm for 20 minutes. After centrifugation, supernatant is separated and analyzed by LC-MS/MS.
as §2

T1 sequence (P11712 whole entry): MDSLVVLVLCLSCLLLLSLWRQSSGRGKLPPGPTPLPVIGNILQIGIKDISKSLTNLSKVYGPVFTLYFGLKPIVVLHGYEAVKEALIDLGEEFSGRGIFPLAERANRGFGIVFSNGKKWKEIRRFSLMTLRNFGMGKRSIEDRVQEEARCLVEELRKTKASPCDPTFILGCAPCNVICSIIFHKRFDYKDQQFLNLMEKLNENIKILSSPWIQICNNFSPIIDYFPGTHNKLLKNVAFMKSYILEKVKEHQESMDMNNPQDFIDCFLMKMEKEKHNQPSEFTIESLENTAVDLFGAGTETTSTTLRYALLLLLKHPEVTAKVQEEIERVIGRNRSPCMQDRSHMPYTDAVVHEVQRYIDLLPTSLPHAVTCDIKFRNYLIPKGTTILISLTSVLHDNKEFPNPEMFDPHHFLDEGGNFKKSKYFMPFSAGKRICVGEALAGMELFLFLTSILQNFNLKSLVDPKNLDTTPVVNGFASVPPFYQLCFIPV

SMILES	IC50 [1] [nM]	IC50 [2] [nM]	IC50 [3] [nM]	IC50 [4] [nM]	IC50 [5] [nM]	IC50 [6] [µM]
CC1(O)CCN(c2ccc(C(F)(F)F)cc2NC(=O)c2ccc(C3CCOCC3)o2)CC1 [Example 11, N-(2-(4-hydroxy-4-methylpiperidin-1-yl)-5-(trifluoromethyl)-phenyl)-5-(tetrahydro-2H-pyran-4-yl)furan-2-carboxamide]	9310	16300	17900	3	10200	15.4
CC1(CN2CCOCC2)CCN(c2ccc(C(F)(F)F)cc2NC(=O)c2ccc(C3CCOCC3)o2)CC1 [Example 97, N-(2-(4-methyl-4-(morpholinomethyl)piperidin-1-yl)-5-(trifluoromethyl)phenyl)-5-(tetrahydro-2H-pyran-4-yl)furan-2-carboxamide]	200	9400	> 30000	6	2700	8.1
CN(C)C(=O)C1(C)CCN(c2ccc(C(F)(F)F)cc2NC(=O)c2ccc(-c3ccncc3)o2)CC1 [Example 74, N,N,4-trimethyl-1-(2-(5-(pyridin-4-yl)furan-2-carboxamido)-4-(trifluoromethyl)phenyl)-piperidine-4-carboxamide]	1130	720	> 30000	2.9	2890	1.55
O=C(Nc1cc(C2CC2)ccc1N1CCCC(O)CC1)c1ccc(C2CCOCC2)o1 (racemic) [Example 49, N-(5-cyclopropyl-2-(4-hydroxyazepan-1-yl)phenyl)-5-(tetrahydro-2H-pyran-4-yl)furan-2-carboxamide]	7250	17200	7340	5.2	6730	21.2
CC1CCN(c2ccc(C(F)(F)F)cc2NC(=O)c2ccc(C3CCOCC3)o2)CC1 [Example 35, N-(2-(4-methylpiperidin-1-yl)-5-(trifluoromethyl)-phenyl)-5-(tetrahydro-2H-pyran-4-yl)furan-2-carboxamide]	> 30000	> 30000	4700	56.1	27800	> 30
CC1(CO)CCN(c2ccc(Cl)cc2NC(=O)c2ccc(C3CCOCC3)o2)CC1 [Example 68, N-(5-chloro-2-(4-(hydroxymethyl)-4-methyl-piperidin-1-yl)phenyl)-5-(tetrahydro-2H-pyran-4-yl)furan-2-carboxamide]	2800	10900	> 30000	1.2	11400	16.1
CC1(C(N)=O)CCN(c2ccc(C(F)(F)F)cc2NC(=O)c2ccc(-c3ccncc3)o2)CC1 [Example 72, 4-methyl-1-(2-(5-(pyridin-4-yl)furan-2-carboxamido)-4-(trifluoromethyl)phenyl)-piperidine-4-carboxamide]	2360	2370	> 30000	1.9	7540	4.13
CC1(O)CCN(c2ccc(C(F)F)cc2NC(=O)c2ccc(-c3ccncc3)o2)CC1 [Example 7, N-(5-(difluoromethyl)-2-(4-hydroxy-4-methyl-piperidin-1-yl)phenyl)-5-(pyridin-4-yl)furan-2-carboxamide]	600	1200	4000	1.7	1400	2.3
Cc1ccc(N2CCC(C)(O)CC2)c(NC(=O)c2ccc(C3CCOCC3)o2)c1 [Example 13, N-(2-(4-hydroxy-4-methylpiperidin-1-yl)-5-methylphenyl)-5-(tetrahydro-2H-pyran-4-yl)furan-2-carboxamide]	7600	23200	> 30000	17.4	15100	> 30
O=C(Nc1cc(Cl)ccc1N1CCCC(O)CC1)c1ccc(-c2ccncc2)o1 (racemic) [Example 45, N-(5-chloro-2-(4-hydroxyazepan-1-yl)phenyl)-5-(pyridin-4-yl)furan-2-carboxamide]	410	1430	550	30	100	0.66
CC1(C(=O)N2CCCC2)CCN(c2ccc(C(F)(F)F)cc2NC(=O)c2ccc(C3CCOCC3)o2)CC1 [Example 88, N-(2-(4-methyl-4-(pyrrolidine-1-carbonyl)-piperidin-1-yl)-5-(trifluoromethyl)-phenyl)-5-(tetrahydro-2H-pyran-4-yl)furan-2-carboxamide]	300	1000	> 30000	11	4600	10.3
CC1(O)CCN(c2ccc(Cl)cc2NC(=O)c2ccccn2)CC1 [Example 2, N-(5-chloro-2-(4-hydroxy-4-methylpiperidin-1-yl)-phenyl)picolinamide]	13500	10000	5890	25	18200	> 30
COc1ccc(N2CCC(C)(CN(C)C)CC2)c(NC(=O)c2ccc(C3CCOCC3)o2)c1 [Example 92, N-(2-(4-((dimethylamino)methyl)-4-methyl-piperidin-1-yl)-5-methoxyphenyl)-5-(tetrahydro-2H-pyran-4-yl)furan-2-carboxamide]	10400	> 30000	> 30000	150	> 30000	1.5
O=C(Nc1cc(C(F)(F)F)ccc1N1CCCC(O)CC1)c1ccc(-c2ccncc2)o1 (racemic) [Example 44, N-(2-(4-hydroxyazepan-1-yl)-5-(trifluoromethyl)-phenyl)-5-(pyridin-4-yl)furan-2-carboxamide]	11200	26300	24300	1.5	8570	25.3
Cc1ccc(N2CCC(O)(CC3CC3)CC2)c(NC(=O)c2ccc(C3CCOCC3)o2)c1 [Example 70, N-(2-(4-(cyclopropylmethyl)-4-hydroxypiperidin-1-yl)-5-methylphenyl)-5-(tetrahydro-2H-pyran-4-yl)furan-2-carboxamide]	1800	4400	> 30000	11	2200	4.7
C[C@]1(O)CCN(c2ccc(C(F)(F)F)cc2NC(=O)c2ccc(C3CCOCC3)o2)C1 [Example 51, (S)-N-(2-(3-hydroxy-3-methylpyrrolidin-1-yl)-5-(trifluoromethyl)phenyl)-5-(tetrahydro-2H-pyran-4-yl)furan-2-carboxamide]	> 30000	> 30000	> 30000	96	20100	> 30
CC1(O)CCN(c2ccc(OC(F)(F)F)cc2NC(=O)c2ccc(C3CCOCC3)o2)CC1 [Example 16, N-(2-(4-hydroxy-4-methylpiperidin-1-yl)-5-(trifluoromethoxy)phenyl)-5-(tetrahydro-2H-pyran-4-yl)furan-2-carboxamide]	5690	27300	26700	16	9550	10.5
CC1(O)CCCN(c2ccc(Cl)cc2NC(=O)c2ccc(-c3ccncc3)o2)CC1 (racemic) [Example 38, N-(5-chloro-2-(4-hydroxy-4-methylazepan-1-yl)phenyl)-5-(pyridin-4-yl)furan-2-carboxamide]	7670	10000	21700	4	7500	15.4
